Assay results: patent publication US20060069132A1, “Azolecarboxamide herbicides” (priority 2004, published 2006)
Like-named read-outs stand apart in the source and are kept apart here.

Key:
barnyardgrass [1] = test: Test B pre-/postemergence herbicide test; assay type: in vivo, Echinochloa crus-galli; conditions: Echinochloa crus-galli; for pest or weed control at 125 g/ha: 125 g ai/ha; for pest or weed control at 500 g/ha: 500 g ai/ha
How it was run: (§1)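 Response was scored visually 13 to 15 days after treatment against untreated greenhouse controls, 0 meaning no effect and 100 complete control. Formulations (solvent mixture plus surfactant) went onto soil after planting, onto foliage of 1- to 4-leaf plants, and onto 2-leaf plants in a flooded paddy set including rice and barnyardgrass.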

Surinam grass = test: Test B pre-/postemergence herbicide test; assay type: in vivo, Urochloa decumbens; conditions: Urochloa decumbens; for pest or weed control at 125 g/ha: 125 g ai/ha; for pest or weed control at 500 g/ha: 500 g ai/ha
How it was run: (§2)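 Test chemicals in a non-phytotoxic solvent mixture with surfactant were applied preemergence to seeded species and postemergence to plants 2-18 cm tall (1- to 4-leaf stage); rice and barnyardgrass were also tested in a flooded paddy at the 2-leaf stage. Visual rating versus controls after 13-15 days in greenhouse, scale 0 (no effect) to 100 (complete control).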

cocklebur = test: Test B pre-/postemergence herbicide test; assay type: in vivo, Xanthium strumarium; conditions: Xanthium strumarium; for pest or weed control at 125 g/ha: 125 g ai/ha; for pest or weed control at 500 g/ha: 500 g ai/ha
How it was run: as §1

corn = test: Test B pre-/postemergence herbicide test; assay type: in vivo, Zea mays; conditions: Zea mays
How it was run: as §2

large crabgrass = test: Test B pre-/postemergence herbicide test; assay type: in vivo, Digitaria sanguinalis; conditions: Digitaria sanguinalis; for pest or weed control at 125 g/ha: 125 g ai/ha; for pest or weed control at 500 g/ha: 500 g ai/ha
How it was run: as §2

giant foxtail = test: Test B pre-/postemergence herbicide test; assay type: in vivo, Setaria faberi; conditions: Setaria faberi, 336 h; for pest or weed control at 125 g/ha: 125 g ai/ha; for pest or weed control at 500 g/ha: 500 g ai/ha
How it was run: as §2

lambsquarters = test: Test B pre-/postemergence herbicide test; assay type: in vivo, Chenopodium album; conditions: Chenopodium album, post-emergence, 336 h, postemergence, read-out: Lambsquarters plant response rating
How it was run: as §2

morningglory = test: Test B pre-/postemergence herbicide test; assay type: in vivo, Ipomoea coccinea; conditions: Ipomoea, 336 h; for pest or weed control at 125 g/ha: 125 g ai/ha; for pest or weed control at 500 g/ha: 500 g ai/ha
How it was run: as §1

pigweed = test: Test B pre-/postemergence herbicide test; assay type: in vivo, Amaranthus retroflexus; conditions: Amaranthus retroflexus, 336 h; for pest or weed control at 125 g/ha: 125 g ai/ha
How it was run: as §2

velvetleaf = test: Test B pre-/postemergence herbicide test; assay type: in vivo, Abutilon theophrasti; conditions: Abutilon theophrasti, 336 h; for pest or weed control at 125 g/ha: 125 g ai/ha; for pest or weed control at 500 g/ha: 500 g ai/ha
How it was run: as §2

wheat = test: Test B postemergence herbicide test; assay type: in vivo, Triticum aestivum; conditions: Triticum aestivum, post-emergence, 336 h, postemergence, read-out: Wheat plant response rating
How it was run: (§3)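 Plants grow to 1- to 4-leaf stage (2–18 cm) for postemergence spraying, or to 2-leaf stage for the paddy test. Formulated compound is applied. Greenhouse holding lasts 13–15 days. Response is scored visually relative to controls, 0 no effect to 100 complete control; a dash means no result.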

wild oat = test: Test B postemergence herbicide test; assay type: in vivo, Avena fatua; conditions: Avena fatua, post-emergence, 336 h, postemergence, read-out: Oat, Wild plant response rating
How it was run: as §3

rice = test: Test B flooded paddy test; assay type: in vivo, Oryza sativa; conditions: Oryza sativa, 336 h, 1000 g ai/ha, scale 0 to 100 (0 no effect, 100 complete control), read-out: Rice plant response rating
How it was run: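 Paddy species grown to the 2-leaf stage under flooding; blackgrass sprayed postemergence at 2–18 cm (1- to 4-leaf stage). Plants kept in a greenhouse for 13 to 15 days, then visually rated against controls on 0 (no effect) to 100 (complete control).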

ducksalad = test: Test B flooded paddy test; assay type: in vivo, Heteranthera limosa; conditions: Heteranthera limosa, 336 h, 1000 g ai/ha, scale 0 to 100 (0 no effect, 100 complete control), read-out: Ducksalad plant response rating
How it was run: (§4)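 Visual control ratings, 0–100 versus untreated controls, taken after 13 to 15 days in the greenhouse. Blackgrass received a postemergence spray at the 1- to 4-leaf stage (2–18 cm); ducksalad, umbrella sedge and barnyardgrass were flooded-paddy treated at 2 leaves.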

barnyardgrass [2] = test: Test B flooded paddy test; assay type: in vivo, Echinochloa crus-galli; conditions: Echinochloa crus-galli, 336 h, 1000 g ai/ha, scale 0 to 100 (0 no effect, 100 complete control), read-out: Barnyardgrass plant response rating
How it was run: as §4

[3] = post-emergence, postemergence, visual rating, scale 0 (no effect) to 100 (complete control), read-out: Barnyardgrass plant response rating
[4] = post-emergence, postemergence, visual rating, scale 0 (no effect) to 100 (complete control), read-out: Cocklebur plant response rating
[5] = 125 g ai/ha, visual rating, scale 0 (no effect) to 100 (complete control)
[6] = 500 g ai/ha, scale 0 to 100, 0 is no effect, 100 is complete control

CCN(CC)C(=O)c1cncc(NC(=O)c2cc(C(C)(C)C)nn2CC)c1 [Compound 261, 5-[[[3-(1,1-dimethylethyl)-1-ethyl-1H-pyrazol-5-yl]carbonyl]amino]-N,N-diethyl-3-pyridinecarboxamide]
10%: pest or weed control at 500 g/ha (cocklebur; [4]) | plant injury at 125 g/ha (corn; post-emergence, postemergence, 125 g ai/ha, visual rating, scale 0 (no effect) to 100 (complete control), read-out: Corn plant response rating) | pest or weed control at 500 g/ha (large crabgrass; post-emergence, postemergence, scale 0 to 100, 0 is no effect, 100 is complete control, read-out: Crabgrass, Large plant response rating) | pest or weed control at 125 g/ha (lambsquarters; [5])
20%: pest or weed control at 500 g/ha (barnyardgrass [1]; pre-emergence, visual rating, 0 = no effect, 100 = complete control, read-out: Plant response rating, Barnyardgrass) | pest or weed control at 500 g/ha (Surinam grass; post-emergence, postemergence, scale 0 to 100, 0 is no effect, 100 is complete control, read-out: Surinam Grass plant response rating) | plant injury at 500 g/ha (corn; post-emergence, postemergence, 500 g ai/ha, scale 0 to 100, 0 is no effect, 100 is complete control, read-out: Corn plant response rating) | pest or weed control at 125 g/ha (pigweed; post-emergence, postemergence, visual rating, scale 0 (no effect) to 100 (complete control), read-out: Pigweed plant response rating) | pest or weed control at 500 g/ha (velvetleaf; pre-emergence, visual rating, 0 = no effect, 100 = complete control, read-out: Plant response rating, Velvetleaf) | plant injury at 500 g/ha (wheat; [6]) | pest or weed control at 500 g/ha (wild oat; [6])
80%: pest or weed control at 1000 g/ha (ducksalad)
60%: pest or weed control at 500 g/ha (lambsquarters; [6]) | plant injury at 1000 g/ha (rice)
50%: pest or weed control at 125 g/ha (large crabgrass; pre-emergence, 0 = no effect, 100 = complete control, read-out: Crabgrass, Large plant response rating (0 to 100 scale)) | pest or weed control at 500 g/ha (large crabgrass; pre-emergence, visual rating, 0 = no effect, 100 = complete control, read-out: Plant response rating, Crabgrass, Large)
70%: pest or weed control at 500 g/ha (pigweed; post-emergence, postemergence, 500 g ai/ha, scale 0 to 100, 0 is no effect, 100 is complete control, read-out: Pigweed plant response rating)
0%: pest or weed control at 125 g/ha (barnyardgrass [1]; [3]) | pest or weed control at 500 g/ha (barnyardgrass [1]; [3]) | pest or weed control at 125 g/ha (barnyardgrass [1]; pre-emergence, 0 = no effect, 100 = complete control, read-out: Barnyardgrass plant response rating (0 to 100 scale)) | pest or weed control at 125 g/ha (Surinam grass; post-emergence, postemergence, visual rating, scale 0 (no effect) to 100 (complete control), read-out: Surinam Grass plant response rating) | pest or weed control at 125 g/ha (Surinam grass; pre-emergence, 0 = no effect, 100 = complete control, read-out: Surinam Grass plant response rating (0 to 100 scale)) | pest or weed control at 500 g/ha (Surinam grass; pre-emergence, visual rating, 0 = no effect, 100 = complete control, read-out: Plant response rating, Surinam Grass) | pest or weed control at 125 g/ha (cocklebur; [4]) | pest or weed control at 125 g/ha (cocklebur; pre-emergence, 0 = no effect, 100 = complete control, read-out: Cocklebur plant response rating (0 to 100 scale)) | pest or weed control at 500 g/ha (cocklebur; pre-emergence, visual rating, 0 = no effect, 100 = complete control, read-out: Plant response rating, Cocklebur) | Corn plant response rating (crop injury, 0 = no effect, 100 = complete kill) at 500 g/ha (corn; pre-emergence, 500 g ai/ha, visual rating, 0 = no effect, 100 = complete control) | pest or weed control at 125 g/ha (large crabgrass; post-emergence, postemergence, visual rating, scale 0 (no effect) to 100 (complete control), read-out: Crabgrass, Large plant response rating) | pest or weed control at 125 g/ha (giant foxtail; post-emergence, postemergence, visual rating, scale 0 (no effect) to 100 (complete control), read-out: Foxtail, Giant plant response rating) | pest or weed control at 500 g/ha (giant foxtail; post-emergence, postemergence, scale 0 to 100, 0 is no effect, 100 is complete control, read-out: Foxtail, Giant plant response rating) | pest or weed control at 125 g/ha (giant foxtail; pre-emergence, 0 = no effect, 100 = complete control, read-out: Foxtail, Giant plant response rating (0 to 100 scale)) | pest or weed control at 500 g/ha (giant foxtail; pre-emergence, visual rating, 0 = no effect, 100 = complete control, read-out: Plant response rating, Foxtail, Giant) | pest or weed control at 125 g/ha (morningglory; post-emergence, postemergence, visual rating, scale 0 (no effect) to 100 (complete control), read-out: Morningglory plant response rating) | pest or weed control at 500 g/ha (morningglory; post-emergence, postemergence, scale 0 to 100, 0 is no effect, 100 is complete control, read-out: Morningglory plant response rating) | pest or weed control at 125 g/ha (morningglory; pre-emergence, 0 = no effect, 100 = complete control, read-out: Morningglory plant response rating (0 to 100 scale)) | pest or weed control at 500 g/ha (morningglory; pre-emergence, visual rating, 0 = no effect, 100 = complete control, read-out: Plant response rating, Morningglory) | pest or weed control at 125 g/ha (pigweed; pre-emergence, 0 = no effect, 100 = complete control, read-out: Pigweed plant response rating (0 to 100 scale)) | pest or weed control at 125 g/ha (velvetleaf; post-emergence, postemergence, visual rating, scale 0 (no effect) to 100 (complete control), read-out: Velvetleaf plant response rating) | pest or weed control at 500 g/ha (velvetleaf; post-emergence, postemergence, scale 0 to 100, 0 is no effect, 100 is complete control, read-out: Velvetleaf plant response rating) | pest or weed control at 125 g/ha (velvetleaf; pre-emergence, 0 = no effect, 100 = complete control, read-out: Velvetleaf plant response rating (0 to 100 scale)) | plant injury at 125 g/ha (wheat; [5]) | pest or weed control at 125 g/ha (wild oat; [5]) | pest or weed control at 1000 g/ha (barnyardgrass [2])
